From US20240400555A1 (Initial Therapeutics, Inc., priority 2023, published 2024)
Read-outs that look alike come from different tables or passages of the source.

System: MV-4-11 cells
Test: Cell Viability Assay in MV-4-11 Cells
Type: cell-based
Conditions: Homo sapiens, MV4-11, 72 h
Description: MV-4-11 cells (ATCC) were seeded into sterile 96-well flat clear bottom white polystyrene TC-treated microplates (Corning) at 7,000 cells/well in 150 μL complete growth medium (Iscove's Modified Dulbecco's Medium (IMDM) (Gibco), 10% Heat Inactivated Fetal Bovine Serum (HyClone), 1% Penicillin-Streptomycin-L-Glutamine (HyClone), 1% GlutaMAX (Gibco)). […] After 72 h incubation, plates were removed from incubators and allowed to equilibrate to room temperature (˜10 min) before adding 50 μL per well Cell-Titer Glo reagent (Promega) using a WellJet (Integra Biosciences) dispenser. Plates were then incubated at room temperature for 2-20 min prior to measurement of luminescence on an Envision (Perkin Elmer) plate reader. Data were normalized to DMSO (100% viability) and analyzed using a non-linear four-parameter curve fit.

[1] = MV-4-11 cells, 72 h, Cell-Titer Glo, read-out: IC50

| SMILES | IC50 [1] | IC50 |
| --- | --- | --- |
| Cc1cccc2ccnc(N(C(=O)N3CCCC(N4C(=O)c5ccccc5C4=O)C3)[C@@H]3CCCNC3)c12 (stereo partly drawn) [Example 345, 3-(1,3-dioxoisoindolin-2-yl)-N-(8-methylisoquinolin-1-yl)-N—((R)-piperidin-3-yl)piperidine-1-carboxamide] | 0.3 µM | – |
| Cn1cc(-c2ccc(C(=O)N(c3cc(/C=C\CCO)ccn3)[C@@H]3CCCNC3)cc2)nn1 [Example 346, N-[4-[(Z)-4-hydroxybut-1-enyl]-2-pyridyl]-4-(1-methyltriazol-4-yl)-N-[(3R)-3-piperidyl] benzamide] | > 10 µM | – |
| Cc1cccc2ccnc(N(C(=O)N3CCC(c4cn(C)nn4)CC3)[C@@H]3CCCNC3)c12 [Example 347, N-(8-methyl-1-isoquinolyl)-4-(1-methyltriazol-4-yl)-N-[(3R)-3-piperidyl]piperidine-1-carboxamide] | 0.3 µM | – |
| Cn1cc(-c2ccc(C(=O)N(c3nccc4cccc(/C=C/c5cn[nH]c5)c34)[C@@H]3CCCNC3)cc2)nn1 [Example 348, (R,E)-N-(8-(2-(1H-pyrazol-4-yl)vinyl)isoquinolin-1-yl)-4-(1-methyl-1H-1,2,3-triazol-4-yl)-N-(piperidin-3-yl)benzamide] | 0.46 µM | – |
| Cn1cc(-c2ccc(C(=O)N(c3nccc4cccc(/C=C/c5cccnc5)c34)[C@@H]3CCCNC3)cc2)nn1 [Example 349, 4-(1-methyltriazol-4-yl)-N-[(3R)-3-piperidyl]-N-[8-[(E)-2-(3-pyridyl)vinyl]-1-isoquinolyl]benzamide] | 0.31 µM | – |
| Cc1cccc2ccnc(N(C(=O)c3ccc(-c4cncnc4N)cc3F)[C@@H]3CCCNC3)c12 [Example 353, (R)-4-(4-aminopyrimidin-5-yl)-2-fluoro-N-(8-methylisoquinolin-1-yl)-N-(piperidin-3-yl)benzamide] | 0.54 µM | – |
| Cc1ncnc(C)c1-c1ccc(C(=O)N(c2nccc3cccc(C)c23)[C@@H]2CCCNC2)c(F)c1 [Example 354, 4-(4,6-dimethylpyrimidin-5-yl)-2-fluoro-N-(8-methyl-1-isoquinolyl)-N-[(3R)-3-piperidyl]benzamide] | 0.97 µM | – |
| Cc1nccc(N)c1-c1ccc(C(=O)N(c2nccc3cccc(C)c23)[C@@H]2CCCNC2)c(F)c1 [Example 361, (R)-4-(4-amino-2-methylpyridin-3-yl)-2-fluoro-N-(8-methylisoquinolin-1-yl)-N-(piperidin-3-yl)benzamide] | > 10 µM | – |
| C=CCc1ccnc(N(C(=O)c2ccc(Cl)c(CC=C)c2)[C@@H]2CCCNC2)c1 [Example 362, 3-allyl-N-(4-allyl-2-pyridyl)-4-chloro-N-[(3R)-3-piperidyl]benzamide] | – | 4.3 µM |
| Cn1cc(-c2ccc(C(=O)N(c3nccc4sc(-c5ccncc5)cc34)[C@@H]3CCCNC3)c(F)c2)nn1 [Example 363, 2-fluoro-4-(1-methyltriazol-4-yl)-N-[(3R)-3-piperidyl]-N-[2-(4-pyridyl)thieno[3,2-c]pyridin-4-yl]benzamide] | 0.35 µM | – |
| O=C(c1ccc(-n2nnc3cccnc32)cc1F)N(c1nccc2sc(-c3cccnc3)cc12)[C@@H]1CCCNC1 [Example 364, 2-fluoro-N-[(3R)-3-piperidyl]-N-[2-(3-pyridyl)thieno[3,2-c]pyridin-4-yl]-4-(triazolo[4,5-b]pyridin-3-yl)benzamide] | 0.36 µM | – |
| O=C(c1ccc(-n2nnc3cccnc32)cc1F)N(c1nccc2sc(-c3ccccn3)cc12)[C@@H]1CCCNC1 [Example 365, 2-fluoro-N-[(3R)-3-piperidyl]-N-[2-(2-pyridyl)thieno[3,2-c]pyridin-4-yl]-4-(triazolo[4,5-b]pyridin-3-yl)benzamide] | 0.48 µM | – |
| O=C(c1ccc(-n2nnc3cccnc32)cc1F)N(c1nccc2cc(-c3ncco3)ccc12)[C@@H]1CCCNC1 [Example 366, (R)-4-(3H-[1,2,3]triazolo[4,5-b]pyridin-3-yl)-2-fluoro-N-(6-(oxazol-2-yl)isoquinolin-1-yl)-N-(piperidin-3-yl)benzamide] | 0.29 µM | – |
| O=C(c1ccc(-n2nnc3cccnc32)cc1F)N(c1nccc2cc(-c3cccnc3)ccc12)[C@@H]1CCCNC1 [Example 367, (R)-4-(3H-[1,2,3]triazolo[4,5-b]pyridin-3-yl)-2-fluoro-N-(piperidin-3-yl)-N-(6-(pyridin-3-yl)isoquinolin-1-yl)benzamide] | 0.25 µM | – |
| O=C(c1ccc(-n2nnc3cccnc32)cc1F)N(c1nccc2cc(-c3cccs3)ccc12)[C@@H]1CCCNC1 [Example 368, (R)-4-(3H-[1,2,3]triazolo[4,5-b]pyridin-3-yl)-2-fluoro-N-(piperidin-3-yl)-N-(6-(thiophen-2-yl)isoquinolin-1-yl)benzamide] | 0.5 µM | – |
| CNC(=O)c1ccc2c(N(C(=O)c3ccc(-n4nnc5cccnc54)cc3F)[C@@H]3CCCNC3)nccc2c1 [Example 369, (R)-1-(4-(3H-[1,2,3]triazolo[4,5-b]pyridin-3-yl)-2-fluoro-N-(piperidin-3-yl)benzamido)-N-methylisoquinoline-6-carboxamide] | 0.23 µM | – |
| Cn1cc(-c2ccc(C(=O)N(c3nccc4cc(-c5cccnc5)ccc34)[C@@H]3CCCNC3)c(F)c2)nn1 [Example 370, (R)-2-fluoro-4-(1-methyl-1H-1,2,3-triazol-4-yl)-N-(piperidin-3-yl)-N-(6-(pyridin-3-yl)isoquinolin-1-yl)benzamide] | 0.18 µM | – |
| O=C(NCCO)c1ccc2c(N(C(=O)c3ccc(-n4nnc5cccnc54)cc3F)[C@@H]3CCCNC3)nccc2c1 [Example 371, (R)-1-(4-(3H-[1,2,3]triazolo[4,5-b]pyridin-3-yl)-2-fluoro-N-(piperidin-3-yl)benzamido)-N-(2-hydroxyethyl) isoquinoline-6-carboxamide] | 1.3 µM | – |
| CC(C)NC(=O)c1ccc2c(N(C(=O)c3ccc(-n4nnc5cccnc54)cc3F)[C@@H]3CCCNC3)nccc2c1 [Example 372, (R)-1-(4-(3H-[1,2,3]triazolo[4,5-b]pyridin-3-yl)-2-fluoro-N-(piperidin-3-yl)benzamido)-N-isopropylisoquinoline-6-carboxamide] | – | 0.1 µM |
| O=C(NCc1ccccc1)c1ccc2c(N(C(=O)c3ccc(-n4nnc5cccnc54)cc3F)[C@@H]3CCCNC3)nccc2c1 [Example 373, (R)-1-(4-(3H-[1,2,3]triazolo[4,5-b]pyridin-3-yl)-2-fluoro-N-(piperidin-3-yl)benzamido)-N-benzylisoquinoline-6-carboxamide] | 0.18 µM | – |
| CNC(=O)c1cc(-c2cc3c(N(C(=O)c4ccc(-n5nnc6cccnc65)cc4F)[C@@H]4CCCNC4)nccc3s2)ccn1 [Example 374, 4-[4-[[2-fluoro-4-(triazolo[4,5-b]pyridin-3-yl)benzoyl]-[(3R)-3-piperidyl]amino]thieno[3,2-c]pyridin-2-yl]-N-methyl-pyridine-2-carboxamide] | 0.6 µM | – |
| COC(=O)c1ccc(-c2cc3c(N(C(=O)c4ccc(-n5nnc6cccnc65)cc4F)[C@@H]4CCCNC4)nccc3s2)cc1 [Example 375, methyl 4-[4-[[2-fluoro-4-(triazolo[4,5-b]pyridin-3-yl)benzoyl]-[(3R)-3-piperidyl]amino]thieno[3,2-c]pyridin-2-yl]benzoate] | 0.6 µM | – |
| CC(C)(O)C#Cc1cc2c(N(C(=O)c3ccc(-n4nnc5cccnc54)cc3F)[C@@H]3CCCNC3)nccc2s1 [Example 376, 2-fluoro-N-[2-(3-hydroxy-3-methyl-but-1-ynyl)thieno[3,2-c]pyridin-4-yl]-N-[(3R)-3-piperidyl]-4-(triazolo[4,5-b]pyridin-3-yl)benzamide] | – | 0.68 µM |
| O=C(c1ccc(-n2nnc3cccnc32)cc1F)N(c1nccc2sc(-c3ccc(O)cc3)cc12)[C@@H]1CCCNC1 [Example 377, (R)-4-(3H-[1,2,3]triazolo[4,5-b]pyridin-3-yl)-2-fluoro-N-(2-(4-hydroxyphenyl)thieno[3,2-c]pyridin-4-yl)-N-(piperidin-3-yl)benzamide] | 1.3 µM | – |
| COc1ccc(-c2cc3c(N(C(=O)c4ccc(-n5nnc6cccnc65)cc4F)[C@@H]4CCCNC4)nccc3s2)cc1 [Example 378, 2-fluoro-N-[2-(4-methoxyphenyl)thieno[3,2-c]pyridin-4-yl]-N-[(3R)-3-piperidyl]-4-(triazolo[4,5-b]pyridin-3-yl)benzamide] | 0.19 µM | – |
| O=C(O)c1ccc(-c2cc3c(N(C(=O)c4ccc(-n5nnc6cccnc65)cc4F)[C@@H]4CCCNC4)nccc3s2)cc1 [Example 379, 4-[4-[[2-fluoro-4-(triazolo[4,5-b]pyridin-3-yl)benzoyl]-[(3R)-3-piperidyl]amino]thieno[3,2-c]pyridin-2-yl]benzoic acid] | > 10 µM | – |
| CNC(=O)c1ccc(-c2cc3c(N(C(=O)c4ccc(-n5nnc6cccnc65)cc4F)[C@@H]4CCCNC4)nccc3s2)cc1 [Example 380, 2-fluoro-N-[2-[4-(methylcarbamoyl)phenyl]thieno[3,2-c]pyridin-4-yl]-N-[(3R)-3-piperidyl]-4-(triazolo[4,5-b]pyridin-3-yl)benzamide] | 0.12 µM | – |
| O=C(c1ccc(-n2nnc3cccnc32)cc1F)N(c1nccc2sc(-c3cccc(O)c3)cc12)[C@@H]1CCCNC1 [Example 381, 2-fluoro-N-[2-(3-hydroxyphenyl)thieno[3,2-c]pyridin-4-yl]-N-[(3R)-3-piperidyl]-4-(triazolo[4,5-b]pyridin-3-yl)benzamide] | 0.2 µM | – |
| C#Cc1cc2c(N(C(=O)c3ccc(-n4nnc5cccnc54)cc3F)[C@@H]3CCCNC3)nccc2s1 [Example 382, N-(2-ethynylthieno[3,2-c]pyridin-4-yl)-2-fluoro-N-[(3R)-3-piperidyl]-4-(triazolo[4,5-b]pyridin-3-yl)benzamide] | 0.64 µM | – |
